Assay results published in EP4682145A1, “BENZOHETEROCYCLIC COMPOUND, AND PREPARATION METHOD THEREFOR AND USE THEREOF” (Cascade Pharmaceuticals, Inc., priority 2023, dated 2024).

Molecular target: T1, human FFAR1 (GPR40) (Homo sapiens, UniProt O14842)
T1 construct: Flag; expressed in transfected cells; host or cells: HEK293T
Experiment: NFAT-RE-based reporter gene activity assay (Dual-Glo luciferase) for GPR40 agonistic activity in co-transfected HEK293T cells
Type: cell-based
Conditions: 4-hour treatment; for Efficacy (%): class symbols
From the text: The pcDNA3.0-flag-FFAR1 (GPR40) plasmid was constructed using conventional molecular cloning methods. The main steps were as follows: The full-length cDNA sequence of human FFAR1 (GPR40) (NM_005303.3) was inserted into the HindIII and XbaI restriction sites of the pcDNA3.0 vector via PCR technology, resulting in the pcDNA3.0-flag-FFAR1 (GPR40) plasmid; pGL4.30 [luc2P NFAT-RE] (# E8481) and pRL-TK (#E2241) plasmids were both purchased from Promega; the plasmids were transformed into DH5α E. coli using the CaCl2 method, further cultured and amplified, and then purified using a plasmid extraction kit (TIANGEN, # DP117) to obtain the corresponding plasmid DNA.
HEK293T cells were seeded in a 96-well plate at a density of 1 × 10^4/well one day prior to plasmid transfection. Cell transfection was performed according to the instructions of the transfection reagent FuGENE® HD (Promega, # E2311). The main steps were as follows: Taking one well as an example, plasmids pcDNA3.0-flag-FFAR1 (GPR40), pGL4.30 [luc2P NFAT-RE], and pRL-TK were added at ratios of 50 ng, 50 ng, and 5 ng, respectively, into 10 µL of Opti-MEM™ I medium (Gibco, #11058021) and mixed thoroughly; then, 0.2 µL of FuGENE® HD was added, mixed thoroughly, and allowed to stand at room temperature for 5 minutes; finally, this 10 µL mixture was added to the cell well containing 100 µL of culture medium. 24 hours after co-transfection, the compounds were serially diluted at half-logarithmic intervals with 1 µM as the highest concentration, resulting in 10 concentration gradients, which were added to the cell culture medium for a 4-hour treatment.
After 4 hours of compound treatment, the cells were assayed according to the instructions of the Dual-Glo® Luciferase Assay System (Promega, # E2940). The main steps were as follows: 50 µL of culture medium was aspirated from each well and discarded, followed by the addition of 50 µL of Dual-Glo® Luciferase Reagent, and the mixture was shaken at room temperature for 10 minutes. Then, 80 µL of the lysate reaction solution was transferred to a white opaque optiPlate-96 well plate, and the luminescence signal of Firefly luciferase (Firefly-Luc) was measured using an MD i3x multifunctional microplate reader. Subsequently, 40 µL of Dual-Glo® Stop & Glo® Reagent was added, and the mixture was shaken at room temperature for 10 minutes. Finally, the luminescence signal of Renilla luciferase (Renilla-Luc) was measured using the MD i3x multifunctional microplate reader. The ratio of Firefly-Luc/Renilla-Luc was used as the compound's agonistic activity toward GPR40, and normalization was performed using the ratio of the solvent DMSO group. A dose-response curve was fitted using a four-parameter model with GraphPad Prism 8.0 software to calculate the EC50 value.

T1 sequence (O14842 whole entry): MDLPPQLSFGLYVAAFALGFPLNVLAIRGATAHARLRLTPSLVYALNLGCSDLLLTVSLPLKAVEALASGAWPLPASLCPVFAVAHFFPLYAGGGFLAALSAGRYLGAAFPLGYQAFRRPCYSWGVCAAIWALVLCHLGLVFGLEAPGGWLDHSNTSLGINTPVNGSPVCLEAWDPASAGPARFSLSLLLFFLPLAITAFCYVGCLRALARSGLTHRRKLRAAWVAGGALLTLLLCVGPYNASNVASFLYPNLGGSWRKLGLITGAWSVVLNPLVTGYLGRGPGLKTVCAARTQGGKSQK

SMILES	EC50	Efficacy (%)
CNC(=O)C(C)(C)n1cc(-c2c(C3CCN(c4cccc(OC)c4)CC3)oc3cc(C(CC(=O)O)C4CC4)ccc23)cn1 (centres unmarked) [Compound 52]	100 to 500 nM	† (100 ≥ Efficacy (%) > 50)
COc1cccc(N2CCC(c3oc4cc(C(CC(=O)O)C5CC5)ccc4c3-c3cnn(C(C)(C)C(=O)N(C)C)c3)CC2)c1 (centres unmarked) [Compound 53]	100 to 500 nM	†† (150 ≥ Efficacy (%) > 100)
COc1cccc(N2CCC(c3oc4cc([C@H](C5CC5)C(F)C(=O)O)ccc4c3-c3cnn(C(C)(C)C)c3)CC2)c1 (some centres unmarked) [Compound 54]	10 to 100 nM	†† (150 ≥ Efficacy (%) > 100)
COc1cccc(N2CCC(c3oc4cc([C@H](C5CC5)C(C)C(=O)O)ccc4c3-c3cnn(C(C)(C)C)c3)CC2)c1 (some centres unmarked) [Compound 55]	≤ 10 nM	†† (150 ≥ Efficacy (%) > 100)
COc1cccc(N2CCC(c3oc4cc(C(CCO)C5CC5)ccc4c3-c3cnn(C(C)(C)C)c3)CC2)c1 (centres unmarked) [Compound 56]	100 to 500 nM	† (100 ≥ Efficacy (%) > 50)
COc1cccc(N2CCC(c3oc4cc(CC(C)C(=O)O)ccc4c3-c3cnn(C(C)(C)C)c3)CC2)c1 (centres unmarked) [Compound 60]	100 to 500 nM	†† (150 ≥ Efficacy (%) > 100)
CCC(Cc1ccc2c(-c3cnn(C(C)(C)C)c3)c(C3CCN(c4cccc(OC)c4)CC3)oc2c1)C(=O)O (centres unmarked) [Compound 61]	100 to 500 nM	†† (150 ≥ Efficacy (%) > 100)
COc1cccc(N2CCC(c3oc4cc(OC(C)C(=O)O)ccc4c3-c3cnn(C(C)(C)C)c3)CC2)c1 (centres unmarked) [Compound 65]	100 to 500 nM	†† (150 ≥ Efficacy (%) > 100)
CCC(CC(=O)O)c1ccc2c(-c3cnn(C(C)(C)C)c3)c(C3CCN(c4cccc(OC)c4)CC3)oc2c1 (centres unmarked) [Compound 66]	100 to 500 nM	†† (150 ≥ Efficacy (%) > 100)
COc1cccc(N2CCC(c3oc4cc(C(CP(=O)(O)OC)C5CC5)ccc4c3-c3cnn(C(C)(C)C)c3)CC2)c1 (centres unmarked) [Compound 70]	> 500 nM	†† (150 ≥ Efficacy (%) > 100)
COc1cccc(N2CCC(c3oc4cc([C@H](C5CC5)C(C)(C)C(N)=O)ccc4c3-c3cnn(C(C)(C)C)c3)CC2)c1 [Compound 71]	100 to 500 nM	†† (150 ≥ Efficacy (%) > 100)
COc1cccc(N2CCC(c3oc4cc(C(CC(=O)O)C5CC5)ccc4c3-c3cnn(C(C)(C)C)c3)CC2)n1 (centres unmarked) [Compound 79]	100 to 500 nM	†† (150 ≥ Efficacy (%) > 100)
COc1cccc(N2CCC(c3oc4cc([C@@H](CC(=O)O)C5CC5)ccc4c3-c3ccc4c(c3)C3(CCCCC3)c3ccccc3-4)CC2)c1 [Compound 81]	100 to 500 nM	† (100 ≥ Efficacy (%) > 50)
CNC(=O)c1cc(-c2c(C3CCN(c4cccc(OC)c4)CC3)oc3cc(C(CC(=O)O)C4CC4)ccc23)cn1C (centres unmarked) [Compound 82]	100 to 500 nM	† (100 ≥ Efficacy (%) > 50)
COc1ccnc(N2CCC(c3oc4cc(C(CC(=O)O)C5CC5)ccc4c3-c3cnn(C(C)(C)C)c3)CC2)c1 (centres unmarked) [Compound 83]	100 to 500 nM	† (100 ≥ Efficacy (%) > 50)
COc1ccc(OC)c(N2CCC(c3oc4cc(C(CC(=O)O)C5CC5)ccc4c3-c3cnn(C(C)(C)C)c3)CC2)c1 (centres unmarked) [Compound 85]	100 to 500 nM	†† (150 ≥ Efficacy (%) > 100)
COc1cccc(N2CCC(c3oc4cc(C(CC(=O)O)C5CC5)ccc4c3-c3cnn(C(C)(C)C)c3)CC2)c1F (centres unmarked) [Compound 86]	10 to 100 nM	††† (Efficacy (%) > 150)
COc1cccc(N2CCC(c3oc4cc([C@@H](CC(=O)O)C5CC5)ccc4c3-c3cnn(C(C)(C)C)c3)CC2)c1F [Compound 87]	10 to 100 nM	†† (150 ≥ Efficacy (%) > 100)
COc1cccc(N2CCC(c3oc4cc(C(CC(=O)O)C5CC5)ccc4c3-c3cnn(C(C)(C)C)c3)CC2)c1Cl (centres unmarked) [Compound 88]	100 to 500 nM	†† (150 ≥ Efficacy (%) > 100)
